Results from patent publication US20030129204A1, “Vaccines against helminthic parasites” (priority 1994, published 2003).
Where two headings read alike, the source gives them in different places. Where a SMILES comes first, the peptide text is derived from it. [ ]: non-standard residue; d: D form. The star is where a group is joined. Sta = CC(C)C[C@H](N)[C@@H](O)CC(=O)O; Isovaleryl = CC(C)CC(=O)*

How the values were obtained:
[1] = test system: TSBP proteinases; assay: Gelatin-substrate gel analysis of TSBP proteinases with inhibitors (O. circumcincta); format: biochemical
Procedure: (§1) TSBP were fractionated by non-reducing SDS-PAGE in 7.5% gel slabs containing 0.1% gelatin. The electrode buffer (Laemmli, 1977) was chilled on ice prior to use. After electrophoresis, SDS was eluted from the gel by extensive washing with 2.5% Triton X-100 for 30 minutes. Gel slabs were incubated overnight at 37° C. in 0.1M acetate buffer pH 5, 2 mM with respect to DTT or 0.1M Tris, pH 8.5. For some experiments TSBP were incubated with proteinase inhibitors prior to electrophoresis and inhibitors were also included in the incubation buffer at the final concentrations indicated above. Proteinases were visualised by Coomassie blue counter-staining.
Proteinase activity associated with TSBP was monitored using gelatin-substrate gel analysis as described in Example 2 (paragraph (b)) to enable the characterisation of individual proteinases.

[2] = test system: TSBP proteinases; format: biochemical, H. contortus; settings: for proteolysis reduced in the presence of inhibitor (percent activity lost): pH 8.5
Procedure: TSBP (2 μg protein in 10 μl) were mixed with 1OO μl sterile buffer (0.1M acetate, pH5) and 20 μl azocasein (1 mg/ml) in the same buffet. The reaction mixture was supplemented with penicillin (500 iu/ml) and streptomycin (5 mg/ml), vortexed briefly and then incubated overnight at 37° C. Undigested protein was precipitated by the addition of 1M perchloric acid (13O μl) and incubation on ice for 30 minutes. Following centrifugation at 11,000 g for 5 minutes the 0D405 of the resulting supernatant was determined. Blank reactions, containing sterile water instead of TSBP, were run in parallel. The optimal pH for enzyme activity was determined in a series of reactions using buffers over the pH range 3 to 10.
The effects of various proteinase inhibitors on TSBP proteinases were monitored by incubating TSBP with buffer supplemented with inhibitor for 30 minutes prior to addition of azocasein and antibiotics. Inhibitors tested and the final reaction concentrations were phenylmethanesulphonylfluoride (PMSF, 1.0 mM), L-transepoxysuccinyl-L-leucylamido-(4-guanidino)-butane (E64, 100 μM), ethylenediaminetetraacetic-acid (EDTA, 1.0 mM) and pepstatin (10 μM).

[3] = test system: TSBP proteinases; assay: Gelatin-substrate gel analysis of TSBP proteinases with inhibitors (H. contortus); format: biochemical; settings: for 70 kDa proteinase activity / 88 kDa proteinase activity: pH 8.5, PMSF 1.0 mM or EDTA 1.0 mM
Procedure: as §1

[4] = pH 5, azocasein, PMSF 1.0 mM, EDTA 1.0 mM, pepstatin 10 μM

| Compound | 97 kDa protease ([1]; pH 8.5) | 70 kDa proteinase activity [3] | 88 kDa proteinase activity [3] | percent activity lost in comparison to a control preparation in the absence of the inhibitor [2, 4] [%] | other results |
| --- | --- | --- | --- | --- | --- |
| c1cnc2c(c1)ccc1cccnc12 [1,10 Phe] | inhibited | – | – | – | – |
| CC(C)C[C@H](NC(=O)[C@H]1O[C@@H]1C(=O)O)C(=O)NCCCCN=C(N)N [E64, L-transepoxysuccinyl-L-leucylamido-(4-guanidino)-butane] | – | – | – | – | zones of proteolysis at 40, 50 and 70 kDa and stack/separating gel interface ([1]; pH 5): completely inhibited; TSBP proteinase activity in the presence of inhibitor ([2]; pH 5, azocasein, E64 100 μM): eliminated; zones of proteolysis at 37-38, 52, 70 and 100 kDa ([3]; pH 5, E64 100 μM): abolished |
| O=C(O)CN(CCN(CC(=O)O)CC(=O)O)CC(=O)O [EDTA, ethylenediaminetetraacetic-acid] | – | markedly reduced | completely inhibited | – | percent activity lost in comparison to a control preparation in the absence of the inhibitor ([2]; pH 5): 11%; proteolysis reduced in the presence of inhibitor (percent activity lost) [2]: 43% |
| O=S(=O)(F)Cc1ccccc1 [PMSF, phenylmethanesulphonylfluoride] | inhibited | markedly reduced | completely inhibited | 28 | 85 kDa doublet proteolysis ([1]; pH 8.5): inhibited; proteolysis reduced in the presence of inhibitor (percent activity lost) ([2]; azocasein, PMSF 1.0 mM, EDTA 1.0 mM): 52% |
| CC(C)CC(=O)N[C@H](C(=O)N[C@H](C(=O)N[C@@H](CC(C)C)[C@@H](O)CC(=O)N[C@@H](C)C(=O)N[C@@H](CC(C)C)[C@@H](O)CC(=O)O)C(C)C)C(C)C [Pepstatin, pepstatin] (Isovaleryl-VV[Sta]A[Sta]-OH) | – | – | – | 6 | – |
